Experimental findings from patent publication US9790215B2 (FLATLEY DISCOVERY LAB, LLC, priority 2013, dated 2017) are described below.

pEC50: −log10 of the molar value.

The target of one assay is T1, human ΔF508-CFTR (Homo sapiens, UniProt P13569, DEL508-508).
T1 construct: expressed in transfected cells
T1 sequence (P13569 with tags, fused parts or gaps DEL508-508): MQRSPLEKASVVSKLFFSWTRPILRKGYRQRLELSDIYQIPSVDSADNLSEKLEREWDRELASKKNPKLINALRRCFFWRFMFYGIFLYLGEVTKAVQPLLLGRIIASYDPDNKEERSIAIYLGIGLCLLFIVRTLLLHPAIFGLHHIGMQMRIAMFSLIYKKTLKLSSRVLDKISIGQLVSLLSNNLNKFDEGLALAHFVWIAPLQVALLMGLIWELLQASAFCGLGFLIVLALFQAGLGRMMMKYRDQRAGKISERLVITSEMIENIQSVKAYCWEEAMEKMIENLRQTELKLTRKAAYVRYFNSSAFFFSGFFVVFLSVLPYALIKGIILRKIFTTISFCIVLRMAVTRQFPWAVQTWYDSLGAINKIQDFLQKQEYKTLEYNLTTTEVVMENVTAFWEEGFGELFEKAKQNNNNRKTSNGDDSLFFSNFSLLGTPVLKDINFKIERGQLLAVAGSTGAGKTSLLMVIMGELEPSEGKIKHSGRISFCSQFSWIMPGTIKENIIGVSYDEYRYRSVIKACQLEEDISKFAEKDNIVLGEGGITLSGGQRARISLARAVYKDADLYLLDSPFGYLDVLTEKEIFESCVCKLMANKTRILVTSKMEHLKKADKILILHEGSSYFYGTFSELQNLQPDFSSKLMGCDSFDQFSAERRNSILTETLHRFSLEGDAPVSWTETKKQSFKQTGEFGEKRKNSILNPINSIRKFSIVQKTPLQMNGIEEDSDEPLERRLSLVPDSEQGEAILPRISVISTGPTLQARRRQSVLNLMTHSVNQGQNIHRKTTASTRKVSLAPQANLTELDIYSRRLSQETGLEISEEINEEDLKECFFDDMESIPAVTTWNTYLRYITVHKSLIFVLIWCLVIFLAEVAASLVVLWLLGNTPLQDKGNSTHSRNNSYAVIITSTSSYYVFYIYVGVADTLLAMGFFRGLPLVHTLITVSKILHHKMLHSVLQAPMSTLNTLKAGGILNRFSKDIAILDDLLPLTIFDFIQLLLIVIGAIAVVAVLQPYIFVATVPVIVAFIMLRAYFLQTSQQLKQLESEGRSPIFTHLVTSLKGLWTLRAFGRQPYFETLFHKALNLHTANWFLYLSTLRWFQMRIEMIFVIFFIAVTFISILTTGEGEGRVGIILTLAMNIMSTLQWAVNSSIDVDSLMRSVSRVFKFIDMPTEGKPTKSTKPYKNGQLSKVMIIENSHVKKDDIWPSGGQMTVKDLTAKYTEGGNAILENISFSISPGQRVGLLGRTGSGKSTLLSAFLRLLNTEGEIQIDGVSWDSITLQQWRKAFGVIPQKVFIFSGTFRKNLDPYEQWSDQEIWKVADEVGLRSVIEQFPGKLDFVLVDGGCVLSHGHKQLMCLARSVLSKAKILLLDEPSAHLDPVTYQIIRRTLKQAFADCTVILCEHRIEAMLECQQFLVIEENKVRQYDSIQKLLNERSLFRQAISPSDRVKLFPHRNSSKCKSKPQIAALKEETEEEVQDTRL
The assay can be described thus: CFTR-YFP High Throughput Assay (YFP halide flux in FRT cells). Type of assay: cell-based. The settings on record: FRT cells expressing human ΔF508-CFTR and YFP; Emax normalized to the positive control. The gist of the method:
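FRT cells stably co-expressing human ΔF508-CFTR and halide-sensitive YFP-H148Q/I152L were treated with compound […] for 24–26 h at 37 °C (corrector mode), washed, then stimulated with 20 μM forskolin plus 30 μM potentiator P3 for 60–120 min at room temperature. Iodide-induced YFP quench (ex 500/em 540 nm) rates came from least-squares fitting.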
Regarding `CCN(C(=O)c1nn(-c2ccccc2F)c(=O)c2c1c1ccccc1n2C)c1ccccc1` [Example 127, N-ethyl-3-(2-fluorophenyl)-5-methyl-4-oxo-N-phenyl-4,5-dihydro-3H-pyridazino[4,5-b]indole-1-carboxamide], the “% Efficacy (Emax normalized to the positive control)” value is reported as “+++ (EMAX > 80%)”.

The same assay, now with this note: FRT cells expressing human ΔF508-CFTR and YFP; forskolin stimulated.
In the case of `CCN(C(=O)c1nn(-c2nccs2)c(=O)c2c1c1ccccc1n2C)c1ccccc1` [Example 121, N-ethyl-5-methyl-4-oxo-N-phenyl-3-(thiazol-2-yl)-4,5-dihydro-3H-pyridazino[4,5-b]indole-1-carboxamide], the negative-log EC50 (pEC50) was above 5.00.
On to `CCN(C(=O)c1nn(-c2ncccn2)c(=O)c2c1c1ccccc1n2C)c1ccccc1` [Example 122, N-ethyl-5-methyl-4-oxo-N-phenyl-3-(pyrimidin-2-yl)-4,5-dihydro-3H-pyridazino[4,5-b]indole-1-carboxamide], for which the negative-log EC50 (pEC50) is 4.70 to 5.00.
On the same count and under the same terms, in the case of `CCN(C(=O)c1nn(-c2nc3ccccc3s2)c(=O)c2c1c1ccccc1n2C)c1ccccc1` [Example 123, 3-(benzo[d]thiazol-2-yl)-N-ethyl-5-methyl-4-oxo-N-phenyl-4,5-dihydro-3H-pyridazino[4,5-b]indole-1-carboxamide] it was 4.70 to 5.00.
For the molecule `CCN(C(=O)c1nn(-c2nc3ccccc3n2C)c(=O)c2c1c1ccccc1n2C)c1ccccc1` [Example 124, N-ethyl-5-methyl-3-(1-methyl-1H-benzo[d]imidazol-2-yl)-4-oxo-N-phenyl-4,5-dihydro-3H-pyridazino[4,5-b]indole-1-carboxamide], the pEC50 is below 4.70.
For `CCN(C(=O)c1nn(-c2ccccc2F)c(=O)c2c1c1ccccc1n2C)c1ccccc1` [Example 125, N-ethyl-3-(2-fluorophenyl)-5-methyl-4-oxo-N-phenyl-4,5-dihydro-3H-pyridazino[4,5-b]indole-1-carboxamide], the negative logarithm of the EC50 (pEC50) was above 5.00.
In the case of `CCN(C(=O)c1nn(-c2ccccc2)c(=O)c2c1c1ccccc1n2C)c1cccc(F)c1` [Example 126, N-ethyl-N-(3-fluorophenyl)-5-methyl-4-oxo-3-phenyl-4,5-dihydro-3H-pyridazino[4,5-b]indole-1-carboxamide], the pEC50 was above 5.00.
Turning to `CCN(C(=O)c1nn(-c2ccccc2F)c(=O)c2c1c1ccccc1n2C)c1ccccc1` [Example 127, N-ethyl-3-(2-fluorophenyl)-5-methyl-4-oxo-N-phenyl-4,5-dihydro-3H-pyridazino[4,5-b]indole-1-carboxamide], the pEC50 was above 5.00.
Consider `CCN(C(=O)c1nn(-c2cnc3ccccc3c2)c(=O)c2c1c1ccccc1n2C)c1ccccc1` [Example 128, N-ethyl-5-methyl-4-oxo-N-phenyl-3-(quinolin-3-yl)-4,5-dihydro-3H-pyridazino[4,5-b]indole-1-carboxamide], for which the negative logarithm of the EC50 (pEC50) is above 5.00.
As for `CCN(C(=O)c1nn(-c2ccc(Cl)cc2)c(=O)c2c1c1ccccc1n2C)c1ccccc1` [Example 129, 3-(4-chlorophenyl)-N-ethyl-5-methyl-4-oxo-N-phenyl-4,5-dihydro-3H-pyridazino[4,5-b]indole-1-carboxamide], the negative-log EC50 (pEC50) is above 5.00.
Take `CCN(C(=O)c1nn(-c2ccc(OC)cc2)c(=O)c2c1c1ccccc1n2C)c1ccccc1` [Example 130, N-ethyl-3-(4-methoxyphenyl)-5-methyl-4-oxo-N-phenyl-4,5-dihydro-3H-pyridazino[4,5-b]indole-1-carboxamide]: the pEC50 is above 5.00.
Consider `CCN(C(=O)c1nn(-c2ccc(C)cn2)c(=O)c2c1c1ccccc1n2C)c1ccccc1` [Example 131, N-ethyl-5-methyl-3-(5-methylpyridin-2-yl)-4-oxo-N-phenyl-4,5-dihydro-3H-pyridazino[4,5-b]indole-1-carboxamide], for which the pEC50 was above 5.00.
The same measure, in the same setting: in the case of `CCN(C(=O)c1nn(-c2ccccc2)c(=O)c2c1c1ccccc1n2C)c1cccc(Cl)c1` [Example 132, N-(3-chlorophenyl)-N-ethyl-5-methyl-4-oxo-3-phenyl-4,5-dihydro-3H-pyridazino[4,5-b]indole-1-carboxamide] it was above 5.00.
Still for that read-out and setting: the value for `CCN(C(=O)c1nn(-c2ccc(C)cc2)c(=O)c2c1c1ccccc1n2C)c1ccc2c(c1)OC(F)(F)O2` [Example 133, N-(2,2-difluorobenzo[d][1,3]dioxol-5-yl)-N-ethyl-5-methyl-4-oxo-3-(p-tolyl)-4,5-dihydro-3H-pyridazino[4,5-b]indole-1-carboxamide] was above 5.00; that for `CCN(C(=O)c1nn(-c2ccc(C)cc2)c(=O)c2c1c1ccccc1n2C)c1cc(Cl)ccc1C(=O)O` [Example 134, 4-chloro-2-(N-ethyl-5-methyl-4-oxo-3-(p-tolyl)-4,5-dihydro-3H-pyridazino[4,5-b]indole-1-carboxamido)benzoic acid] was above 5.00; that for `Cc1ccc(-n2nc(C(=O)Nc3cc(Cl)ccc3C(=O)O)c3c4ccccc4n(C)c3c2=O)cc1` [Example 135, 4-chloro-2-(5-methyl-4-oxo-3-(p-tolyl)-4,5-dihydro-3H-pyridazino[4,5-b]indole-1-carboxamido)benzoic acid] was above 5.00.
Still for that read-out and setting: the value for `CCN(C(=O)c1nn(Cc2ccccc2)c(=O)c2c1c1ccccc1n2C)c1ccccc1` [Example 136, 3-benzyl-N-ethyl-5-methyl-4-oxo-N-phenyl-4,5-dihydro-3H-pyridazino[4,5-b]indole-1-carboxamide] was below 4.70; that for `CCN(C(=O)c1nn(C2CCN(Cc3ccccc3)CC2)c(=O)c2c1c1ccccc1n2C)c1ccccc1` [Example 137, 3-(1-benzylpiperidin-4-yl)-N-ethyl-5-methyl-4-oxo-N-phenyl-4,5-dihydro-3H-pyridazino[4,5-b]indole-1-carboxamide] was above 5.00.
As for `CCN(C(=O)c1nn(C(C)C)c(=O)c2c1c1ccccc1n2C)c1cccc(Cl)c1` [Example 140, N-(3-chlorophenyl)-N-ethyl-3-isopropyl-5-methyl-4-oxo-4,5-dihydro-3H-pyridazino[4,5-b]indole-1-carboxamide], the pEC50 was above 5.00.
Same read-out and setting: the value for `CCN(C(=O)Cn1nc(C(=O)N(CC)c2cccc(Cl)c2)c2c3ccccc3n(C)c2c1=O)c1ccc2c(c1)OC(F)(F)O2` [Example 141, N-(3-chlorophenyl)-3-(2-((2,2-difluorobenzo[d][1,3]dioxol-5-yl)(ethyl)amino)-2-oxoethyl)-N-ethyl-5-methyl-4-oxo-4,5-dihydro-3H-pyridazino[4,5-b]indole-1-carboxamide] was above 5.00; that for `CCc1ccc(N(CC)C(=O)Cn2nc(C(=O)N(CC)c3cccc(Cl)c3)c3c4ccccc4n(C)c3c2=O)cc1` [Example 142, N-(3-chlorophenyl)-N-ethyl-3-(2-(ethyl(4-ethylphenyl)amino)-2-oxoethyl)-5-methyl-4-oxo-4,5-dihydro-3H-pyridazino[4,5-b]indole-1-carboxamide] was above 5.00; that for `CCN(C(=O)c1nn(C2CCCCC2)c(=O)c2c1c1ccccc1n2C)c1cccc(Cl)c1` [Example 143, N-(3-chlorophenyl)-3-cyclohexyl-N-ethyl-5-methyl-4-oxo-4,5-dihydro-3H-pyridazino[4,5-b]indole-1-carboxamide] was above 5.00.
Regarding `CCN(C(=O)c1nn(C(C)C)c(=O)c2c1c1ccccc1n2C)c1cc(Cl)ccc1C#N` [Example 144, N-(5-chloro-2-cyanophenyl)-N-ethyl-3-isopropyl-5-methyl-4-oxo-4,5-dihydro-3H-pyridazino[4,5-b]indole-1-carboxamide], the negative-log EC50 (pEC50) was above 5.00.
Take `CCN(CC)C(=O)c1nn(CC(=O)N(CC)c2ccc3c(c2)OC(F)(F)O3)c(=O)c2c1c1ccccc1n2C` [Example 145, 3-(2-((2,2-difluorobenzo[d][1,3]dioxol-5-yl)(ethyl)amino)-2-oxoethyl)-N,N-diethyl-5-methyl-4-oxo-4,5-dihydro-3H-pyridazino[4,5-b] indole-1-carboxamide]: the pEC50 is above 5.00.
Consider `CCN(C(=O)c1nn(-c2ccc(C)cc2)c(=O)c2c1c1ccccc1n2C1CCC1)c1ccccc1` [Example 146, 5-cyclobutyl-N-ethyl-4-oxo-N-phenyl-3-p-tolyl-4,5-dihydro-3H-pyridazino[4,5-b]indole-1-carboxamide], for which the negative-log EC50 (pEC50) is 4.70 to 5.00.
For the molecule `CCN(C(=O)c1nn(-c2ccc(C)cc2)c(=O)c2[nH]c3ccccc3c12)c1ccccc1` [Example 147, N-Ethyl-4-oxo-N-phenyl-3-p-tolyl-4,5-dihydro-3H-pyridazino[4,5-b]indole-1-carboxamide], the negative-log EC50 (pEC50) is above 5.00.
`CCN(C(=O)c1nn(-c2ccc(C)cc2)c(=O)c2[nH]c3ccccc3c12)c1cccc(Cl)c1` [Example 148, N-(3-chlorophenyl)-N-ethyl-4-oxo-3-(p-tolyl)-4,5-dihydro-3H-pyridazino[4,5-b]indole-1-carboxamide]: the pEC50 was above 5.00.
Regarding `CCN(C(=O)Cn1ncc2c([nH]c3ccccc32)c1=O)c1ccc2c(c1)OC(F)(F)O2` [Example 149, N-(2,2-difluorobenzo[d][1,3]dioxol-5-yl)-N-ethyl-2-(4-oxo-4,5-dihydro-3H-pyridazino[4,5-b]indol-3-yl)acetamide], the pEC50 is above 5.00.
On to `CCN(C(=O)c1nn(-c2ccc(C)cc2)c(=O)c2c1c1ccccc1n2CC#N)c1ccccc1` [Example 150, 5-(cyanomethyl)-N-ethyl-4-oxo-N-phenyl-3-(p-tolyl)-4,5-dihydro-3H-pyridazino[4,5-b]indole-1-carboxamide], for which the negative-log EC50 (pEC50) was below 4.70.
Consider `CCN(C(=O)c1nn(-c2ccc(C)cc2)c(=O)c2c1c1ccccc1n2CC(=O)O)c1ccccc1` [Example 151, 2-(1-(ethyl(phenyl)carbamoyl)-4-oxo-3-(p-tolyl)-3H-pyridazino[4,5-b]indol-5(4H)-yl)acetic acid], for which the negative-log EC50 (pEC50) was below 4.70.
Consider `CCN(C(=O)c1nn(-c2ccc(C)cc2)c(=O)c2c1c1ccccc1n2C(C)C)c1ccccc1` [Example 152, N-ethyl-5-isopropyl-4-oxo-N-phenyl-3-(p-tolyl)-4,5-dihydro-3H-pyridazino[4,5-b]indole-1-carboxamide], for which the pEC50 is below 4.70.
Still for that read-out and setting: the value for `CCN(C(=O)c1nn(-c2ccc(C)cc2)c(=O)c2c1c1ccccc1n2Cc1ccccn1)c1ccccc1` [Example 153, N-ethyl-4-oxo-N-phenyl-5-(pyridin-2-ylmethyl)-3-(p-tolyl)-4,5-dihydro-3H-pyridazino[4,5-b]indole-1-carboxamide] was below 4.70.

The pEC50 is the EC50 on a negative log10 scale, so that one unit is a factor of ten.
